The values that follow come from PMC3608532, “Characterization of a Single-Chain Variable Fragment Recognizing a Linear Epitope of Aβ: A Biotechnical Tool for Studies on Alzheimer’s Disease?” (PLoS ONE, 2013).

One experiment relates to Aβ(1-8). The experiment is described as follows: SPR binding kinetics to immobilized Aβ(1-8). The procedure: Binding kinetics were determined by SPR using a Biacore™ X (GE Healthcare, UK). Synthetic Aβ peptides were dissolved in 10 mM NaAc, pH 4.0. The CM5 sensor chip surface (GE Healthcare, UK) was activated using N-ethyl-N′-3 […] carbodiimide (EDC) and N-hydroxysuccinimide (NHS) chemistry followed by 2-(2-pyridinyldithio)ethaneamine hydrochloride (PDEA), in order to introduce a reactive thiol group. Aβ was coupled via the C-terminal cysteine to the chip at a flow rate of 5 µl/min, and the remaining active groups were blocked by injecting cysteine. The immobilization procedure was performed according to manufacturer’s recommendation. All kinetic analyses were performed at a flow rate of 20 µl/min in PBS. Varying concentrations of scFv-IC16 (10 to 5000 nM) and IC16 (10 to 1000 nM) were injected. […] When required, the surface was regenerated by injecting 20 µl 50 mM glycine, pH 11.0. The data evaluation was performed using Biaevaluation Software 4.1.1. ScFv-IC16 data were fitted according to the Langmuir 1∶1 binding model, whereas IC16 data were fitted according to the bivalent binding model. Standard errors of equilibrium dissociation constants (KD) were calculated using standard errors of the corresponding association and dissociation rate constants.

For experiment [1], the system named is Aβ naturally secreted by 7PA2 cells. The experiment is described as follows: Immunoprecipitation of cell culture derived Aβ. The format is binding. Particulars: scFv-IC16-NHS-Sepharose, Western blot with 4G8. The procedure: Purified scFv-IC16 was dialyzed against PBS and coupled to NHS-Sepharose (GE, Buckinghamshire, UK) according to the manufacturers recommendations. Conditioned medium (CM) was prepared from confluent wild type CHO cells or 7PA2 cells cultured in DMEM (Life Technologies, UK) in presence or absence of FCS. Aβ was immune-precipitated from cleared CM with scFv-IC16-NHS-Sepharose overnight at 4°C. After washing with PBS, captured proteins were separated by 10–20% tricine peptide PAGE (Biorad, Hercules, CA) and transferred onto a 0.2 µm nitrocellulose membrane at 400 mA for 2 h. The filter was boiled for 5 min in PBS [42] and blocked overnight at 4°C with 5% fat-free milk in PBS containing 0.05% Tween 20 (PBS-T). After washing in PBS-T, the membrane was probed with 1∶200 diluted monoclonal 4G8 (Signet, Dedhem, MA). Bound antibody was detected with horseradish peroxidase conjugated goat anti-mouse Ig (at 1∶25000) (Thermo Scientific, Bonn, Germany). Subsequently, the Amersham ECL Western Blotting Detection Reagent (GE, Buckinghamshire, UK) was applied for visualization.
On the technique in general: Immunoblotting shows a protein as a band on a membrane.

Experiment [2] concerns Aβ plaques in brain cryosections of Tg2576 mice. The experiment is described as follows: Ex vivo staining of plaques in mouse brain slices. Conditions: 9 or 12 months old Tg2576 mice and wildtype control, 20 µm sections; scFv-IC16 400 nM, 6E10 33 nM, 1-11-3 1:200; fluorescence microscopy. The procedure: Deep frozen horizontal brain cryosections (20 µm thickness) from 9 or 12 months old Tg2576 mice and the respective wildtype control were dried in ambient air for 15 min, and then fixed in ice-cold 4% (w/v) paraformaldehyde for 20 min. Incubation with 70% formic acid for 5 min was performed to enhance immunoreactivity. Sections were permeabilized with 1% Triton X-100 in TBS for 10 min, followed by blocking with Mouse on mouse (M.O.M.) Basic Kit (Vector Laboratories) in TBS-Triton (1%, v/v) for 30 min. Primary antibodies were diluted in 1% BSA/TBS-Triton (working concentration of ScFv: 400 nM, 6E10∶33 nM, 1-11-3 (Covance, USA) in 1∶200 dilution) and probed on the sections for 1 h, incubating at room temperature. […] For double staining, two secondary antibodies (goat anti mouse-Alexa488 and goat anti rabbit-Alexa-568 were mixed directly (working concentration of goat anti rabbit-Alexa568∶1.300). After 1 min of incubation with 0.5 µg/ml DAPI, the sections were coverslip-mounted with Aqua Poly/Mont (Polysciences Inc, Worrington, PA, USA). Sections were examined under a fluorescence microscope (Leica LMD6000 (Leica, Solms, Germany). Excitation Range: UV; blue; green. Excitation Filter: Bp 420/30; Bp 495/15; Bp 570/20) with camera (Leica DFC 310 FX). Images were processed with LAS software (Leica Application Suite, V.4.0.0) and ImageJ (1.45 s).

Consider “scFv-IC16: single-chain variable fragment (VH-(Gly4Ser)3-VL, His6- and Myc-tag) derived from Aβ binding monoclonal antibody IC16, expressed in E. coli”, for which the k on in the experiment with Aβ(1-8) (SPR Biacore X, Aβ peptide coupled via C-terminal cysteine to CM5 chip, PBS, 25°C, 20 µl/min, global fit, scFv-IC16 Langmuir 1:1 model, IC16 bivalent model, ± standard error, SEM) is 3.10±0.02×10^4 M^-1 s^-1. Moreover, the Kd at Aβ(1-8) (SPR Biacore X, CM5 chip, PBS, 25°C, global fit, scFv-IC16 Langmuir 1:1 model, IC16 bivalent model, standard error from kon and koff errors, SEM) is 553 nM; on Aβ(1-8) (SPR, Langmuir 1:1 binding model), 550 nM. The k off in the experiment on Aβ(1-8) (SPR Biacore X, CM5 chip, PBS, 25°C, global fit, scFv-IC16 Langmuir 1:1 model, IC16 bivalent model, ± standard error, SEM) is 1.72±0.005×10^−2 s^-1. In experiment [1] (7PA2 conditioned medium containing FCS, overnight 4°C), the “immunoprecipitation of monomeric Aβ” value is reported as “efficiently precipitated”. For the same substance, the “immunoprecipitation of lower oligomeric Aβ species” value in experiment [1] (conditioned medium of 7PA2 cells cultured without FCS) is “efficiently precipitated”. The “plaque staining in brain cryosections” value in experiment [2] is reported as “detect plaques specifically”.
